Results as given in patent US8148404B2, “Modulators of CB1 receptors” (7TM Pharma A/S, priority 2006, dated 2012).

These compounds were tested against T1, human CB1 receptor (Homo sapiens, UniProt P21554) (assay: Cannabinoid Receptor-1 functional assay: inhibition of CP55940-induced [35S]GTPγS binding to membranes of CHO-K1 cells expressing human CB1). Details: 3 nM CP55940, [35S]GTPγS SPA, hCB1 membranes; read-out: IC50 value for antagonizing a CB1 receptor agonist.
T1 construct: expressed in transfected cells; membranes used
Format: biochemical
In short: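 Membranes (5 μg/well) from CHO-K1 cells stably expressing human CB1 incubated 1 hr at room temperature with 1 nM [35S]GTPγS, 3 nM CP55940 and test compound in HEPES pH 7.5 buffer with 1 μM GDP, saponin. Bound label read by SPA after 30 min with beads; IC50 by non-linear regression.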

T1 sequence (P21554 whole entry): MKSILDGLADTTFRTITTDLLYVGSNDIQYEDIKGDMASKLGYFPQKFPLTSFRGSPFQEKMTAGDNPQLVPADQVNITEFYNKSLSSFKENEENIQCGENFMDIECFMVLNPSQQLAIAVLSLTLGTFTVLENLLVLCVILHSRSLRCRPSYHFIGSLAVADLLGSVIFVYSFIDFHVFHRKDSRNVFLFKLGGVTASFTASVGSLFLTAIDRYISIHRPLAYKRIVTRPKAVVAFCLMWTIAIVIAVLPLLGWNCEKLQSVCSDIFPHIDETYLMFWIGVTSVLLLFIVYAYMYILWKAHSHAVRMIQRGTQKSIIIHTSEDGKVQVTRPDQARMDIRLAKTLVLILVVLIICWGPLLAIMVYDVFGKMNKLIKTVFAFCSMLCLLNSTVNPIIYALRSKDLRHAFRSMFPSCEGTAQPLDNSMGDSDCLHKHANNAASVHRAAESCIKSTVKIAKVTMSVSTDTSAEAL

IC50, < 300 nM:
O=C(c1nn(-c2ccccc2F)c(-c2ccc(Cl)cc2)c1Cc1nn[nH]n1)N1CCC(Oc2ccc(Cl)cc2)CC1 [[4.1], [1-(2-Fluoro-phenyl)-5-(4-chloro-phenyl)-4-(2H-tetrazol-5-ylmethyl)-1H-pyrazol-3-yl]-[4-(4-chlorophenoxy)-piperidin-1-yl]-methanone]
O=C(c1nn(-c2ccccc2F)c(-c2ccc(Cl)cc2)c1Cc1nn[nH]n1)N1CCC(c2ccccc2F)CC1 [[4.2], [1-(2-Fluoro-phenyl)-5-(4-chloro-phenyl)-4-(2H-tetrazol-5-ylmethyl)-1H-pyrazol-3-yl]-[4-(2-fluoro-phenyl)-piperidin-1-yl]-methanone]
O=C(O)Cc1c(C(=O)N2CCC(c3ccccc3F)CC2)nn(-c2ccccc2F)c1-c1ccc(Cl)cc1 [[4.4], {1-(2-Fluoro-phenyl)-5-(4-chloro-phenyl)-3-[4-(2-fluoro-phenyl)-piperidine-1-carbonyl]-1H-pyrazol-4-yl}-acetic acid]
